Our source for the Activity and Ratio values is ChEMBL document CHEMBL5226308, “Amide-Amine Replacement in Indole-2-carboxamides Yields Potent Mycobactericidal Agents with Improved Water Solubility” (ACS Med Chem Lett, 2021).

The source made the active and inactive calls. The calls are words filed in the database; no cut-off is given here.

The test system of test [1] is Mycobacterium tuberculosis. Put plainly: Antimycobacterial activity against Mycobacterium tuberculosis H37Rv M16-1 harboring V285A mutant assessed as inhibition of bacterial growth incubated for 7 days by broth dilution method. The following applies: time 7.0 day. The test is classed as functional, organism-based. Background: Broth dilution looks for growth in wells or tubes with falling amounts of substance.

For test [2], the system named is Mycobacterium tuberculosis. The experiment in a line: Antimycobacterial activity against Mycobacterium tuberculosis H37Rv M16-3 harboring V684G mutant assessed as inhibition of bacterial growth incubated for 7 days by broth dilution method. It is filed as functional, organism-based. The note with it: time 7.0 day.
Test [3] concerns Mycobacterium tuberculosis. The experiment in a line: Antimycobacterial activity against Mycobacterium tuberculosis H37Rv M16-4 harboring V684A mutant assessed as inhibition of bacterial growth incubated for 7 days by broth dilution method. The test is classed as functional, organism-based. The following applies: time 7.0 day.
In test [4] the test system is Mycobacterium tuberculosis. The experiment in a line: Antimycobacterial activity against Mycobacterium tuberculosis H37Rv M16-5 harboring G253E mutant assessed as inhibition of bacterial growth incubated for 7 days by broth dilution method. It is filed as functional, organism-based. The following applies: time 7.0 day.
In test [5] the test system is Mycobacterium tuberculosis. Put plainly: Antimycobacterial activity against Mycobacterium tuberculosis H37Rv M33-1 harboring V643M mutant assessed as inhibition of bacterial growth incubated for 7 days by broth dilution method. The test is classed as functional, organism-based. The note with it: time 7.0 day.
The subject of test [6] is Mycobacterium tuberculosis. The experiment in a line: Antimycobacterial activity against Mycobacterium tuberculosis H37Rv M47-1 harboring A700T mutant assessed as inhibition of bacterial growth incubated for 7 days by broth dilution method. The test is classed as functional, organism-based. The following applies: time 7.0 day.
Test [7] has as its system Mycobacterium tuberculosis. Put plainly: Antimycobacterial activity against Mycobacterium tuberculosis H37Rv M47-2 harboring I244F mutant assessed as inhibition of bacterial growth incubated for 7 days by broth dilution method. It is filed as functional, organism-based. The note with it: time 7.0 day.
The test system of test [8] is Mycobacterium tuberculosis. The experiment in a line: Antimycobacterial activity against Mycobacterium tuberculosis H37Rv M47-3 harboring Ins710Q mutant assessed as inhibition of bacterial growth incubated for 7 days by broth dilution method. It is filed as functional, organism-based. The following applies: time 7.0 day.
Test [9] relates to Mycobacterium tuberculosis. Put plainly: Antimycobacterial activity against Mycobacterium tuberculosis H37Rv M47-4 harboring V681I mutant assessed as inhibition of bacterial growth incubated for 7 days by broth dilution method. The test is classed as functional, organism-based. The note with it: time 7.0 day.
The nature of test [10]: Ratio of MIC90 for antimycobacterial activity against Mycobacterium tuberculosis H37Rv M16-1 harboring mmpL3 T854C/V258A mutant to MIC90 for antimycobacterial activity against wild type Mycobacterium tuberculosis H37Rv ATCC 27294. It is filed as functional.
A short description of test [11]: Ratio of MIC90 for antimycobacterial activity against Mycobacterium tuberculosis H37Rv M16-2 harboring mmpL3 G758A/G253E mutant to MIC90 for antimycobacterial activity against wild type Mycobacterium tuberculosis H37Rv ATCC 27294. It is filed as functional.
Test [12] can be described thus: Ratio of MIC90 for antimycobacterial activity against Mycobacterium tuberculosis H37Rv M16-3 harboring mmpL3 T2051G/V684G mutant to MIC90 for antimycobacterial activity against wild type Mycobacterium tuberculosis H37Rv ATCC 27294. It is filed as functional.
Test [13] is described as follows: Ratio of MIC90 for antimycobacterial activity against Mycobacterium tuberculosis H37Rv M16-4 harboring mmpL3 T2051C/V684A mutant to MIC90 for antimycobacterial activity against wild type Mycobacterium tuberculosis H37Rv ATCC 27294. It is filed as functional.
The nature of test [14]: Ratio of MIC90 for antimycobacterial activity against Mycobacterium tuberculosis H37Rv M16-5 harboring mmpL3 G758A/G253E mutant to MIC90 for antimycobacterial activity against wild type Mycobacterium tuberculosis H37Rv ATCC 27294. The test is classed as functional.
Test [15] in a line: Ratio of MIC90 for antimycobacterial activity against Mycobacterium tuberculosis H37Rv M33-1 harboring mmpL3 G1927A/V643M mutant to MIC90 for antimycobacterial activity against wild type Mycobacterium tuberculosis H37Rv ATCC 27294. The test is classed as functional.
Test [16] in a line: Ratio of MIC90 for antimycobacterial activity against Mycobacterium tuberculosis H37Rv M47-1 harboring mmpL3 G2098A/A700T mutant to MIC90 for antimycobacterial activity against wild type Mycobacterium tuberculosis H37Rv ATCC 27294. The test is classed as functional.
A short description of test [17]: Ratio of MIC90 for antimycobacterial activity against Mycobacterium tuberculosis H37Rv M47-2 harboring mmpL3 A730T/I244F mutant to MIC90 for antimycobacterial activity against wild type Mycobacterium tuberculosis H37Rv ATCC 27294. The test is classed as functional.
Test [18] is described as follows: Ratio of MIC90 for antimycobacterial activity against Mycobacterium tuberculosis H37Rv M47-3 harboring mmpL3 Ins2128CAG/Ins710Q mutant to MIC90 for antimycobacterial activity against wild type Mycobacterium tuberculosis H37Rv ATCC 27294. The test is classed as functional.
Test [19] can be described thus: Ratio of MIC90 for antimycobacterial activity against Mycobacterium tuberculosis H37Rv M47-4 harboring mmpL3 G2041A/V681I mutant to MIC90 for antimycobacterial activity against wild type Mycobacterium tuberculosis H37Rv ATCC 27294. It is filed as functional.

On to `O=C(NC1CCCCCCC1)c1cc2ccccc2[se]1`, for which the outcome in [1], in test [2], in test [3], in [4], in [5] and in test [6] was inactive. Moreover, the result in test [7], in [8] and in test [9] was inactive.

`FC(F)(F)c1ccc2cc(CNC3CCCCCCC3)[nH]c2c1`: the Ratio in test [10], in test [11], in test [12], in test [13], in [14] and in test [15] was 5 in each case. The Ratio in [16], in test [17], in test [18] and in test [19] was 5 throughout.

Take `c1ccc2sc(CNC3CCCCCCC3)cc2c1`: the Ratio in [10], in [11], in test [12], in test [13], in test [14] and in test [15] was 5 each time. The Ratio in [16], in [17], in test [18] and in test [19] was 5 in each case.

With `c1ccc2[se]c(CNC3CCCCCCC3)cc2c1`, the outcome in test [1], in test [2], in [3], in test [4], in test [5] and in test [6] was inactive. Moreover, the result in [7], in [8] and in test [9] was inactive.

As to `O=C(NC1CCCCCCC1)c1cc2ccc(C(F)(F)F)cc2[nH]1`, the Ratio in test [10], in test [11], in test [12], in test [13], in test [14] and in [15] was 5 throughout. The Ratio in test [16], in [17], in [18] and in test [19] was 5 each time.

In the case of `O=C(NC1CCCCCCC1)c1cc2ccccc2s1`, the result in [1], in test [2], in [3], in test [4], in [5] and in [6] was inactive. Moreover, the result in [7], in test [8] and in test [9] was inactive.
